Tests used:
[1] = system: human αMHC promoter-driven EGFP transgenic monkey ESCs; experiment: αMHC promoter-driven GFP expression, cardiac differentiation of transgenic monkey ESCs (HCA); format: cell-based; details: for intensity of the GFP signal driven by αMHC promoter: comparison of chemical and proteinaceous WNT inhibitors, FIG. 3b,c; for cardiac differentiation when BIO was added: monkey ESCs and hiPSCs, with 5 μM BIO
From the text: To generate human αMHC promoter-driven EGFP-expressing monkey ESCs, the 918 bp upstream from the transcriptional starting site and the third exon just before the open reading frame were amplified from genomic DNAs of KhES-1 hESCs by PCR, using the following primer sets —forward primer, 5′- […]-3′ (SEQ ID No: 37); reverse primer, 5′- (including a SalI linker) 22 […]-3′ (SEQ ID No: 38)—and then ligated into pGEM-T Easy Vector (Promega). The HindIII/SalI fragment from the cloning vector was connected with pEGFP-1 (Clontech). The linearized αMHC-EFGP vector was introduced into CMK6.4 monkey ESCs by electroporation. Transgenic ESC clones were selectively grown with G418 (Sigma-Aldrich). The expression of EGEP was confirmed in beating colonies.
The confluent (4-5 d after passage) αMHC-GFP transgenic monkey ESCs were dissociated enzymatically by CTK solution (Non-patent literature 1), and the ESC clumps (40-100 μm in diameter) were obtained using 40 and 100 μm Cell Strainers (BD Biosciences). The ESC clumps (approximately 5.0×10^3 cells well^−1) were transferred onto 96-well plates (Greiner Bio-One, 96-well black plate, Cat. No. 655090) and incubated in cardiac differentiation medium as described in (4) below. During Days 6-14 of cardiac differentiation, 9600 compounds from the chemical library (dissolved in DMSO) were screened using 96-well plates. Sixteen and 80 wells were used for the control (0.1% DMSO) and chemical compounds (1 per well), respectively. Final concentration of the each compound was approximately 1-5 μM. Medium containing small molecules was changed every 4 d. On Day 14, GFP fluorescence of ESCs was measured by whole-plate scanning, using the Metamorph imaging system (Molecular Device). Metamorph software was used to analyze the GFP fluorescence data and calculate Fluorescence Area, Total Fluorescence Intensity, Average Fluorescence Intensity, and number of GFP-positive colonies for each well. Hit compounds were determined by the following criteria: Average Fluorescence Intensity of a well with the compound was >6 SD greater than Average Fluorescence Intensity of the control (mean of 16 wells), and Total Fluorescence Intensity for the compound was >0 SD greater than the control; or Total Fluorescence Intensity of the compound was >4 SD greater than the control, and Average Fluorescence Intensity of the compound was >0 SD greater than the control. One hundred and twenty compounds passed these criteria and were retested using 8 wells for each compound.
Confluent hESCs and hiPSCs were gently detached with CTK solution and transferred into Petri dishes (BD Biosciences) with Primate ES Cell Culture Medium (ReproCELL, Japan). Cells were held in suspension culture for 8-24 h to form aggregates. The sizes of hPSC aggregates (0.3-1 mm in diameter) are important for efficient differentiation. Following suspension culture, cell aggregates were attached to culture dishes (3-10×10^5 cells cm^−2) in cardiac differentiation medium: IMDM (Sigma), containing 20% FBS (Gibco), 1% MEM non-essential amino acid solution (Sigma), 1% Penicillin-Streptomycin (Gibco), 2 mM L-glutamine (Sigma), 0.001% 2-Mercaptoethanol (Gibco), and 0.005N NaOH, with 10 ng ml^−1 BMP4 (R&D Systems). The medium was changed to cardiac differentiation medium with 10 μM KY02111 and/or other WNT inhibitors added on Day 3 (hiPSC lines) or Day 4 (human or monkey ESC lines); XAV939 (Wako, Japan), IWP-2 (Santa Cruz Biotechnology), IWR-1 (Merck4Bioscience), IGFBP4 (R&D Systems), Dkk1 (R&D Systems) and the mixture of bFGF (R&D Systems), BMP4 (R&D Systems), VEGF (R&D Systems), DKK1 (R&D Systems), and Activin A (R&D Systems) (Non-patent literature 16). Medium was changed every 2-3 d. KY02111 and other WNT inhibitors were added until Day 9 for hiPSC lines and the monkey ESC line, or Day 14 for hESC lines. […]

[2] = system: KY02111-induced cardiomyocytes (KY-CMs); experiment: qPCR of cardiac marker and ion channel genes in KY02111-induced cardiomyocytes; format: cell-based, human; details: Days 15 and 30
Description: Total RNA was isolated with an RNeasy Mini Kit (QIAGEN). Genomic DNA was completely digested with DNase I (Invitrogen). Total RNA (0.5 μg) was subjected to cDNA synthesis using the SuperScript III Reverse Transcriptase (Invitrogen). qRT-PCR was performed in triplicate, using SYBER GREEN PCR Master Mix on a 7500 Real Time PCR System (Applied Biosystems). The cycling conditions were as follows: 10 min at 95° C.; 40 cycles, each consisting of 15 s at 95° C.; 1 min at 60° C. Total RNA from human adult heart tissue (BioChain) was used to evaluate the expression levels of cardiac marker genes for cardiomyocytes derived from hPSCs. All values were normalized with respect to GAPDH expression level and expressed relative to the corresponding values in human adult hearts (100%).

## Cc1ccc2nc(NC(=O)CSc3nc4c(c(=O)n3-c3ccccc3)SCC4)sc2c1 [IWP-2, reference compound]
[1]
  intensity of the GFP signal driven by αMHC promoter: increased
  cardiac differentiation when BIO was added: completely inhibited

## COc1ccc(CCC(=O)Nc2nc3ccc(Cl)cc3s2)cc1OC [KY02111, 2-(3-(3,4-dimethoxyphenyl)propanamide)-6-chlorobenzothiazole]
[1]; 10 μM, comparison of WNT inhibitors, FIG. 3b
  increase of differentiation compared to the control (GFP signal): about 80 fold
[1]; DMSO=100%
  GFP expression level induced by N11474 and related compounds (structure-activity): induced the highest levels
[1]; FIG. 1d
  promotion of cardiac differentiation relative to DMSO control (GFP increase ratio): about 73 times
  promotion of cardiac differentiation relative to N11474: 7.4 times
[1]
  intensity of the GFP signal driven by αMHC promoter: most effective
  cardiac differentiation when BIO was added: not affected by BIO
[2]
  expression of ion channel genes in KY-CMs relative to adult heart tissue: equivalent to those of adult heart tissue

## Oc1nc(-c2ccc(C(F)(F)F)cc2)nc2c1CSCC2 [XAV939, reference compound]
[1]
  intensity of the GFP signal driven by αMHC promoter: increased
  cardiac differentiation when BIO was added: completely inhibited

— patent US9587220B2, “Method for inducing cardiac differentiation of pluripotent stem cell” (Kyoto University, priority 2012, dated 2017)
